Results from US20240245654A1, “ADJUNCTIVE D-CYCLOSERINE AUGMENTATION OF TRANSCRANIAL MAGNETIC STIMULATION (TMS) THERAPY FOR MAJOR DEPRESSIVE DISORDER” (MCGRX CORP., priority 2021, published 2024).
“Also recorded” adds a separate entry of the source.

How the values were obtained:
[1] = test system: left primary motor cortex (iTBS synaptic plasticity); assay: Repeated spaced iTBS of motor cortex, MEP and stimulus response curve, placebo-controlled crossover trial in healthy individuals (NCT05081986); assay type: in vivo, human; conditions: n=20 healthy, vs placebo
Description: Methods: This experiment was a pre-registered randomized, double-blind, placebo-controlled crossover trial (NCT05081986). Twenty healthy individuals were randomly assigned to one of two experimental arms of the crossover study: a) Placebo-D-cycloserine and b) D-cycloserine-placebo. In the placebo arm, participants received one oral dose of 100 mg microcrystalline cellulose one hour prior to iTBS. In the D-cycloserine 100 mg arm, participants received one oral dose of 100 mg D-cycloserine one hour before ITBS. Participants attended the laboratory on two occasions to complete both arms of the crossover design. Time of arrival was standardized across visits, and visits were separated by at least seven days.
All TMS pulses were delivered using a neuro-navigated MagPro stimulator (X100 system, MagVenture, Denmark) with a biphasic Cool-B70 figure-eight coil. […] The peak-to-peak amplitude of MEPs were recorded from two surface electromyographic (EMG) electrodes placed on the right first dorsal interosseous muscle (FDI), with the ground electrode placed on the right styloid process. […]
TMS was delivered to the left primary motor cortex to identify the area that, when stimulated, elicited the largest peak-to-peak FDI MEP amplitude (the hotspot). […] The resting motor threshold (RMT) was determined as the lowest stimulator output, which elicited peak-to-peak MEP amplitudes≥0.05 mV in 5/10 trials. […]

[2] = test system: motor cortex (iTBS synaptic plasticity); assay: Motor cortex iTBS, MEP and stimulus response curve, placebo-controlled crossover study in Major Depressive Disorder (NCT03937596); assay type: in vivo, human
[3] = test system: treatment resistant major depressive disorder (MDD); assay: 4-week double-blind placebo-controlled RCT of iTBS+DCS in treatment resistant MDD: depression, CGI, anxiety, wellbeing outcomes; assay type: in vivo, human; conditions: for rate of clinical remission (MADRS≤10): iTBS+placebo 4.2%
Description: Methods: In this preregistered (NCT03937596) single site 4-week randomized double-blind placebo-controlled trial, fifty participants with treatment resistant MDD were randomized 1:1 to ITBS+Placebo or iTBS+D-Cycloserine (100 mg). Participants were asked to take the adjunct or placebo at least 60 minutes prior to daily iTBS treatments for the first two weeks, and iTBS continued without an adjunct for weeks three and four. We utilized a MagPro X100 stimulator (MagVenture, Denmark) and a COOL-B70 coil. Targeting of the left DLPFC involved surface anatomy and the Beam F3 method^30. Although anatomical and functional neuroimaging was collected as part of the study protocol, targeting utilizing surface anatomy was chosen to increase generalizability to clinical settings where neuroimaging derived targets are not feasible. This target was registered to either the participant's anatomical MRI or to a template brain for those who could not complete neuroimaging (Visor2, ANT Neuro, the Netherlands). Resting motor threshold (rMT) was determined using electromyographic (EMG) electrodes placed over the first dorsal interosseous muscle, with threshold determined as the stimulus intensity required to elicit a minimum of 5 out of 10 EMG responses of >50 uV.
Patients all received active-iTBS, consisting of a total of 600 pulses per session delivered in twenty trains of triplets at 50 Hz repeated at 5 Hz (2 s on 8 s off) at 80% rMT. Participants received daily treatments Monday through Friday for a total of 20 treatments.
The primary outcome was change in depressive symptoms as measured by the Montgomery Asberg Depression Rating Scale (MADRS) at the conclusion of treatment. Secondary outcomes included clinical response (≥50% improvement in MADRS), clinical remission (MADRS≤10), and clinical global impression (CGI).

[4] = test system: MDD-related cognitive impairment; assay: RCT of iTBS+DCS in MDD: cognition (PDQ, THINC-it N-Back); assay type: in vivo, human; conditions: iTBS+DCS 100 mg vs iTBS+Placebo; listed as DCS
Description: The efficacy of 100 mg DCS as an adjunctive strategy to iTBS to reduce MDD-related cognitive impairment and/or improve cognition in MDD was be tested in the randomized controlled trial described in the above Example.
Participants completed the Cognitive Failures Questionnaire (CFQ31) and the Perceived Deficits Questionnaire (PDQ) as well as the THINC-it computerized neurocognitive battery at baseline and after treatment.

[5] = test system: neurite density at the iTBS target site; assay: RCT of iTBS+DCS in MDD: NODDI diffusion MRI at iTBS target site; assay type: in vivo, human; conditions: iTBS+DCS treated participants; not in iTBS+Placebo; listed as DCS
Description: Neurite Density and Dispersion Orientation Index (NODDI)^32 is an MRI tool that provides a proxy measure of neurite morphology and arborization that has been validated against histology in model species^33,34. While more commonly applied to white matter, NODDI has discriminating power in cortical gray matter in both health and disease^35-37. Neurite density metrics reflect the volume within neurites, whereas orientation dispersion metrics capture the tortuosity or complexity of neural processes, both of which are affected in MDD.
In the randomized placebo-controlled trial discussed in the Example above, diffusion magnetic resonance data to quantify Neurite Density and Dispersion Orientation Index (NODDI)^32 were acquired using a 3T General Electric Discovery MR750 scanner at the Seaman Family MR Research Center. This method provides a proxy measure of histopathological features in brain white and gray matter to describe neurite morphology and arborization.

[6] = test system: suicidal ideation and suicide risk in MDD; assay: RCT of iTBS+DCS in MDD: suicidal ideation and death-implicit association test; assay type: in vivo, human; conditions: iTBS+DCS vs iTBS+Placebo, listed as DCS
Description: Participants also completed a computerized neuropsychological test called the death-implicit association test that is associated with suicide attempts, both retrospectively and prospectively.

[7] = test system: motor cortex (MEP facilitation after iTBS); conditions: healthy participants, described elsewhere; cited from earlier work
[8] = test system: TMS-associated plasticity; conditions: low dose; cited from earlier work
[9] = test system: tDCS plasticity; conditions: compared with tDCS alone; cited from earlier work

SMILES: N[C@@H]1CONC1=O [D-cycloserine]
- facilitation of MEP peak to peak amplitude after repeated spaced iTBS ([1]; 100 mg oral one hour before iTBS, two iTBS separated by an hour): not impacted
- stimulus response curve change after iTBS ([1]; adjunctive 100 mg): significant and sustained facilitation
- relationship between ΔAUC 90 min and ΔAUC NextDay of the SRC ([2]; D-cycloserine groups, placebo groups weak negative relationship): positively correlated; also recorded: positive relationship
- MEP time course following iTBS ([2]; MDD participants n=12, 100 mg, vs placebo arm): did not impact
- change in stimulus response curve the day following iTBS ([2]; MDD participants, 100 mg, compared with healthy-placebo and MDD-placebo): normalized
- OR of clinical response ([3]; 2 weeks, iTBS+DCS vs iTBS+placebo, 95% CI: 1.41-21.03): 5.45
- rate of clinical remission (MADRS≤10) ([3]; 2 weeks): 17.4%
- rate of clinical response (≥50% improvement in MADRS) ([3]; 2 weeks, iTBS+placebo 16.7%): 52.2%
- OR of clinical remission ([3]; 4 weeks, iTBS+DCS vs iTBS+placebo, 95% CI: 1.68-129.52): 14.78
- OR of clinical response ([3]; 4 weeks, iTBS+DCS vs iTBS+placebo, 95% CI: 1.91-24.77): 6.88
- rate of clinical remission (MADRS≤10) ([3]; 4 weeks): 39.1%
- rate of clinical response (≥50% improvement in MADRS) ([3]; 4 weeks, iTBS+placebo 29.2%): 73.9%
- change in depressive symptoms (MADRS scores) ([3]; iTBS+DCS 100 mg vs iTBS+Placebo, mITT, 4 weeks, listed as DCS): significant improvement in depressive symptoms; also recorded: greater reductions in depressive symptoms
- MADRS mean difference, per treatment analyses ([3]; iTBS+DCS vs iTBS+Placebo, 2 weeks, 95% CI: 0.43-7.51): 3.97
- MADRS mean difference, per treatment analyses ([3]; iTBS+DCS vs iTBS+Placebo, 4 weeks, 95% CI: 2.66-11.52): 7.09
- Hedge's g (MADRS change) ([3]; iTBS+DCS vs iTBS+Placebo, 95% CI: 0.34-1.62): 0.99
- CGI-Improvement scores ([3]; iTBS+DCS vs iTBS+Placebo, at 2 weeks and 4 weeks, listed as DCS): greater improvements on the clinical global impression scale; also recorded: greater improvement
- mean difference on the MADRS ([3]; iTBS+DCS vs iTBS+Placebo, mITT, baseline to 4 weeks, 95% CI: 2.43-9.88, p=0.001): 6.15
- CGI-severity scale ([3]; iTBS+DCS vs iTBS+Placebo, p=0.0014, listed as DCS): greater improvements in clinical global impression severity scores
- visual analog scale for overall wellbeing ([3]; iTBS+DCS vs iTBS+Placebo, p=0.018, listed as DCS): greater improvements in overall wellbeing; also recorded: greater improvement
- self-reported anxiety symptoms (GAD-7) ([3]; iTBS+DCS vs iTBS+Placebo, p=0.035, listed as DCS): greater improvements in anxiety; also recorded: greater improvement
- objective cognitive function, N-Back task of working memory [4]: significantly greater improvements; also recorded: significant improvements
- subjective cognitive function (Perceived Deficits Questionnaire) [4]: significantly greater improvements; also recorded: significant improvements
- neurite density at the target site (NODDI) [5]: increased neurite density; also recorded: Neurite density increases
- suicidal ideation [6]: rapid resolution of suicidal ideation; also recorded: greater reductions in suicidal ideation
- death-implicit association test performance ([6]; persisted when controlling for depressive symptom improvement): showed improvement; also recorded: greater reductions in scores
- facilitation of MEPs after iTBS [7]: blunted facilitation of MEPs
- short-term facilitation with high-frequency rTMS [8]: increases short-term facilitation
- duration of sustained plasticity with transcranial direct current stimulation [9]: more than 12 hours
